Laboratory results: patent US6355799B1, “Substituted benzene compounds, process for their preparation, and herbicidal and defoliant compositions containing them” (ISK Americas Incorporated, priority 1997, dated 2002)

What was measured:
Format in all cases: in vivo
[1] = test system: field corn (Zea mays L., var. Dekalb 535, CORN); experiment: Pre-emerge test, crop safety; conditions: pre-emerge, 14 days after application, rating scale 0-100
Method in brief: (§1)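 Herbicidal damage is scored 0 (none) to 100 (complete plant death) two weeks after a simulated field spray. Rates span 15–1000 g ai/ha, delivered in acetone at 187 l/ha. For post-emergence treatments, plants have 2–3 leaves and the spray carries 0.25% v/v non-ionic surfactant.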

[2] = test system: upland rice (Oryza sp., var. Tebonnet, RICE); experiment: Pre-emerge test, crop safety; conditions: pre-emerge, 14 days after application, rating scale 0-100
Method in brief: as §1

[3] = test system: large crabgrass (Digitaria sanguinalis, DIGSA); experiment: Post-emerge test, greenhouse herbicide activity screening; conditions: post-emerge, 14 days after application, rating scale 0-100
Method in brief: (§2)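 Applied at 15–1000 g ai/ha from acetone in 187 l/ha spray volume. Post-emergence applications included 0.25% v/v non-ionic surfactant and reached plants sown 8–21 days before. Pre-emergence applications were incorporated by surface watering. Efficacy or crop damage was rated on a 0–100 scale after 14 days.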

[4] = test system: redroot pigweed (Amaranthus retroflexus, AMARE); experiment: as above; conditions: post-emerge, 14 days after application
Method in brief: as §2

[5] = test system: green foxtail (Setaria viridis, SETVI); experiment: as above; conditions: post-emerge, 14 days after application, rating scale 0-100
Method in brief: as §2

[6] = test system: johnsongrass (Sorghum halepense, SORHA); experiment: as above; conditions: post-emerge, 14 days after application, rating scale 0-100
Method in brief: as §2

[7] = test system: sicklepod (Cassia obtusifolia, CASOB); experiment: as above; conditions: post-emerge, 14 days after application, rating scale 0-100
Method in brief: as §2

[8] = test system: barnyardgrass (Echinochloa crus-galli, ECHCG); experiment: as above; conditions: post-emerge, 14 days after application, rating scale 0-100
Method in brief: as §2

[9] = test system: velvetleaf (Abutilon theophrasti, ABUTH); experiment: as above; conditions: post-emerge, 14 days after application, rating scale 0-100
Method in brief: as §2

[10] = test system: lambsquarters (Chenopodium album, CHEAL); experiment: as above; conditions: post-emerge, 14 days after application, rating scale 0-100
Method in brief: as §2

[11] = test system: ivyleaf morningglory (Ipomoea hederacea, IPOHE); experiment: as above; conditions: post-emerge, 14 days after application, rating scale 0-100
Method in brief: as §2

[12] = test system: redroot pigweed (Amaranthus retroflexus, AMARE); experiment: Pre-emerge test, greenhouse herbicide activity screening; conditions: pre-emerge, 14 days after application, rating scale 0-100
Method in brief: (§3)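 Rating: 0–100 visual injury, 14 DAA. Application: acetone, 187 l/ha, 15–1000 g ai/ha, flat-fan track sprayer with nozzle 40–45 cm above soil or canopy. Post-emerge runs used 0.25% v/v surfactant on 2–3 leaf plants.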

[13] = test system: large crabgrass (Digitaria sanguinalis, DIGSA); experiment: as above; conditions: pre-emerge, 14 days after application, rating scale 0-100
Method in brief: (§4)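 Compounds in acetone were track-sprayed at 15–1000 g ai/ha: pre-emergence onto soil sown the previous day, then top-watered to incorporate and later bottom-watered; post-emergence onto 2–3 leaf plants with 0.25% v/v surfactant, bottom-watered only. Ratings on a 0–100 phytotoxicity scale were taken at day 14.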

[14] = test system: green foxtail (Setaria viridis, SETVI); experiment: as above; conditions: pre-emerge, 14 days after application, rating scale 0-100
Method in brief: as §4

[15] = test system: johnsongrass (Sorghum halepense, SORHA); experiment: as above; conditions: pre-emerge, 14 days after application, rating scale 0-100
Method in brief: as §4

[16] = test system: sicklepod (Cassia obtusifolia, CASOB); experiment: as above; conditions: pre-emerge, 14 days after application, rating scale 0-100
Method in brief: as §4

[17] = test system: barnyardgrass (Echinochloa crus-galli, ECHCG); experiment: as above; conditions: pre-emerge, 14 days after application, rating scale 0-100
Method in brief: as §4

[18] = test system: velvetleaf (Abutilon theophrasti, ABUTH); experiment: as above; conditions: pre-emerge, 14 days after application, rating scale 0-100
Method in brief: as §4

[19] = test system: lambsquarters (Chenopodium album, CHEAL); experiment: as above; conditions: pre-emerge, 14 days after application, rating scale 0-100
Method in brief: as §4

[20] = test system: ivyleaf morningglory (Ipomoea hederacea, IPOHE); experiment: as above; conditions: pre-emerge, 14 days after application, rating scale 0-100
Method in brief: as §4

[21] = test system: field corn (Zea mays L., var. Dekalb 535, CORN); experiment: Post-emerge test, crop safety; conditions: post-emerge, 14 days after application, rating scale 0-100
Method in brief: as §3

[22] = test system: upland rice (Oryza sp., var. Tebonnet, RICE); experiment: Post-emerge test, crop safety; conditions: post-emerge, 14 days after application, rating scale 0-100
Method in brief: as §3

[23] = 63 g ai/ha, rating scale 0-100 (0 no damage, 100 complete death)
[24] = 250 g ai/ha, rating scale 0-100

CCOC(=O)CC(C)=NNc1c(OC)c(Cl)cc(F)c1-n1c(=O)cc(C(F)(F)F)n(C)c1=O [15-16]
phytotoxicity rating CORN ([1]; 63 g ai/ha): 65
phytotoxicity rating CORN ([1]; 250 g ai/ha): 100
phytotoxicity rating RICE ([2]; 63 g ai/ha): 90
phytotoxicity rating RICE ([2]; 250 g ai/ha): 100
Post-emerge Herbicidal Activity DIGSA (phytotoxicity rating) ([3]; 63 g ai/ha): 20
Post-emerge Herbicidal Activity DIGSA (phytotoxicity rating) ([3]; 250 g ai/ha): 80
Post-emerge Herbicidal Activity AMARE (phytotoxicity rating) [4, 23]: 80
Post-emerge Herbicidal Activity AMARE (phytotoxicity rating) [4, 24]: 100
Post-emerge Herbicidal Activity SETVI (phytotoxicity rating) ([5]; 63 g ai/ha): 30
Post-emerge Herbicidal Activity SETVI (phytotoxicity rating) ([5]; 250 g ai/ha): 60
Post-emerge Herbicidal Activity SORHA (phytotoxicity rating) ([6]; 63 g ai/ha): 10
Post-emerge Herbicidal Activity SORHA (phytotoxicity rating) ([6]; 250 g ai/ha): 70
Post-emerge Herbicidal Activity CASOB (phytotoxicity rating) ([7]; 63 g ai/ha): 80
Post-emerge Herbicidal Activity CASOB (phytotoxicity rating) ([7]; 250 g ai/ha): 100
Post-emerge Herbicidal Activity ECHCG (phytotoxicity rating) ([8]; 63 g ai/ha): 10
Post-emerge Herbicidal Activity ECHCG (phytotoxicity rating) ([8]; 250 g ai/ha): 90
Post-emerge Herbicidal Activity ABUTH (phytotoxicity rating) ([9]; 63 g ai/ha): 100
Post-emerge Herbicidal Activity ABUTH (phytotoxicity rating) ([9]; 250 g ai/ha): 100
Post-emerge Herbicidal Activity CHEAL (phytotoxicity rating) ([10]; 63 g ai/ha): 100
Post-emerge Herbicidal Activity CHEAL (phytotoxicity rating) ([10]; 250 g ai/ha): 100
Post-emerge Herbicidal Activity IPOHE (phytotoxicity rating) ([11]; 63 g ai/ha): 100
Post-emerge Herbicidal Activity IPOHE (phytotoxicity rating) ([11]; 250 g ai/ha): 100
phytotoxicity rating AMARE ([12]; 63 g ai/ha): 100
phytotoxicity rating AMARE ([12]; 250 g ai/ha): 100
phytotoxicity rating DIGSA ([13]; 63 g ai/ha): 100
phytotoxicity rating DIGSA ([13]; 250 g ai/ha): 100
phytotoxicity rating SETVI ([14]; 63 g ai/ha): 100
phytotoxicity rating SETVI ([14]; 250 g ai/ha): 100
phytotoxicity rating SORHA ([15]; 63 g ai/ha): 100
phytotoxicity rating SORHA ([15]; 250 g ai/ha): 100
phytotoxicity rating CASOB ([16]; 63 g ai/ha): 90
phytotoxicity rating CASOB ([16]; 250 g ai/ha): 100
phytotoxicity rating ECHCG ([17]; 63 g ai/ha): 80
phytotoxicity rating ECHCG ([17]; 250 g ai/ha): 100
phytotoxicity rating ABUTH ([18]; 63 g ai/ha): 100
phytotoxicity rating ABUTH ([18]; 250 g ai/ha): 100
phytotoxicity rating CHEAL ([19]; 63 g ai/ha): 100
phytotoxicity rating CHEAL ([19]; 250 g ai/ha): 100
phytotoxicity rating IPOHE ([20]; 63 g ai/ha): 90
phytotoxicity rating IPOHE ([20]; 250 g ai/ha): 100
Post-emerge Herbicidal Activity CORN (crop damage rating) ([21]; 63 g ai/ha): 15
Post-emerge Herbicidal Activity CORN (crop damage rating) ([21]; 250 g ai/ha): 45
Post-emerge Herbicidal Activity RICE (crop damage rating) ([22]; 63 g ai/ha): 40
Post-emerge Herbicidal Activity RICE (crop damage rating) ([22]; 250 g ai/ha): 80

COc1c(Cl)cc(F)c(-n2c(=O)cc(C(F)(F)F)n(C)c2=O)c1NN=C1CCc2ccccc2C1 [15-18]
phytotoxicity rating CORN ([1]; 63 g ai/ha): 80
phytotoxicity rating CORN ([1]; 250 g ai/ha): 95
phytotoxicity rating RICE ([2]; 63 g ai/ha): 90
phytotoxicity rating RICE ([2]; 250 g ai/ha): 99
Post-emerge Herbicidal Activity DIGSA (phytotoxicity rating) ([3]; 63 g ai/ha): 10
Post-emerge Herbicidal Activity DIGSA (phytotoxicity rating) ([3]; 250 g ai/ha): 100
Post-emerge Herbicidal Activity AMARE (phytotoxicity rating) [4, 23]: 100
Post-emerge Herbicidal Activity AMARE (phytotoxicity rating) [4, 24]: 100
Post-emerge Herbicidal Activity SETVI (phytotoxicity rating) ([5]; 63 g ai/ha): 20
Post-emerge Herbicidal Activity SETVI (phytotoxicity rating) ([5]; 250 g ai/ha): 80
Post-emerge Herbicidal Activity SORHA (phytotoxicity rating) ([6]; 63 g ai/ha): 0
Post-emerge Herbicidal Activity SORHA (phytotoxicity rating) ([6]; 250 g ai/ha): 99
Post-emerge Herbicidal Activity CASOB (phytotoxicity rating) ([7]; 63 g ai/ha): 40
Post-emerge Herbicidal Activity CASOB (phytotoxicity rating) ([7]; 250 g ai/ha): 100
Post-emerge Herbicidal Activity ECHCG (phytotoxicity rating) ([8]; 63 g ai/ha): 10
Post-emerge Herbicidal Activity ECHCG (phytotoxicity rating) ([8]; 250 g ai/ha): 95
Post-emerge Herbicidal Activity ABUTH (phytotoxicity rating) ([9]; 63 g ai/ha): 100
Post-emerge Herbicidal Activity ABUTH (phytotoxicity rating) ([9]; 250 g ai/ha): 100
Post-emerge Herbicidal Activity CHEAL (phytotoxicity rating) ([10]; 63 g ai/ha): 100
Post-emerge Herbicidal Activity CHEAL (phytotoxicity rating) ([10]; 250 g ai/ha): 100
Post-emerge Herbicidal Activity IPOHE (phytotoxicity rating) ([11]; 63 g ai/ha): 90
Post-emerge Herbicidal Activity IPOHE (phytotoxicity rating) ([11]; 250 g ai/ha): 100
phytotoxicity rating AMARE ([12]; 63 g ai/ha): 100
phytotoxicity rating AMARE ([12]; 250 g ai/ha): 100
phytotoxicity rating DIGSA ([13]; 63 g ai/ha): 100
phytotoxicity rating DIGSA ([13]; 250 g ai/ha): 100
phytotoxicity rating SETVI ([14]; 63 g ai/ha): 95
phytotoxicity rating SETVI ([14]; 250 g ai/ha): 100
phytotoxicity rating SORHA ([15]; 63 g ai/ha): 75
phytotoxicity rating SORHA ([15]; 250 g ai/ha): 100
phytotoxicity rating CASOB ([16]; 63 g ai/ha): 100
phytotoxicity rating CASOB ([16]; 250 g ai/ha): 100
phytotoxicity rating ECHCG ([17]; 63 g ai/ha): 75
phytotoxicity rating ECHCG ([17]; 250 g ai/ha): 100
phytotoxicity rating ABUTH ([18]; 63 g ai/ha): 100
phytotoxicity rating ABUTH ([18]; 250 g ai/ha): 100
phytotoxicity rating CHEAL ([19]; 63 g ai/ha): 100
phytotoxicity rating CHEAL ([19]; 250 g ai/ha): 100
phytotoxicity rating IPOHE ([20]; 63 g ai/ha): 90
phytotoxicity rating IPOHE ([20]; 250 g ai/ha): 100
Post-emerge Herbicidal Activity CORN (crop damage rating) ([21]; 63 g ai/ha): 20
Post-emerge Herbicidal Activity CORN (crop damage rating) ([21]; 250 g ai/ha): 80
Post-emerge Herbicidal Activity RICE (crop damage rating) ([22]; 63 g ai/ha): 30
Post-emerge Herbicidal Activity RICE (crop damage rating) ([22]; 250 g ai/ha): 85
